Source: patent US20110071158A1, “NEW COMPOUNDS” (BOEHRINGER INGELHEIM INTERNATIONAL GMBH, priority 2009, published 2011)

Key:
Type in all cases: biochemical
PTK2 enzyme [1] = molecular target: T1, PTK2 enzyme (Homo sapiens, UniProt Q05397); assay: PTK2 enzyme test, Assay 1 (DELFIA, poly-Glu-Tyr substrate, antibody PT60); conditions: Assay 1 (values without *); 1 h pre-incubation, 2% DMSO
T1 construct: purchased Invitrogen PV3832
Summary of the method: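 Active PTK2 (0.01 µg/well) preincubated 1 h at RT with compound (duplicates, 2% DMSO final), then reacted 1 h at RT with poly(Glu,Tyr) 4:1 plus biotinylated poly(Glu,Tyr) and an ATP mix containing 50 μM ATP. EDTA-stopped, streptavidin-captured product detected by Eu-PT60 anti-phosphotyrosine DELFIA; IC50 by variable-Hill sigmoid fit.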

[2] = molecular target: T2, Xenopus laevis Aurora B/INCENP complex (Xenopus laevis, UniProt Q6DE08); assay: Aurora-B kinase assay (radioactive enzyme inhibition)
T2 construct: equipped at the N-terminal position with a GST tag (amino acids 60-361); GST (N, cleaved yes); made in house; host or cells: E. coli BL21 (DE3)
Text: A radioactive enzyme inhibition assay was developed using E. coli-expressed recombinant Xenopus laevis Aurora B wild-type protein equipped at the N-terminal position with a GST tag (amino acids 60-361) in a complex with Xenopus laevis INCENP (amino acids 790-847), which is obtained from bacteria and purified. In equivalent manner a Xenopus laevis Aurora B mutant (G96V) in a complex with Xenopus laevis INCENP^790-847 may also be used.
The coding sequence for Aurora-B^60-361 from Xenopus laevis is cloned into a modified version of pGEX-6T (Amersham Biotech) via BamHI and SalI cutting sites. The vector contains two cloning cassettes which are separated by a ribosomal binding site, allowing bi-cistronic expression. In this configuration Xenopus laevis Aurora B is expressed by the first cassette, and the Xenopus laevis INCENP^790-847 is expressed by the second cassette. The resulting vector is pAUB-IN^847.
First of all the E. coli strain BL21 (DE3) is co-transformed with pUBS520 helper plasmid and pAUB-IN^847, after which protein expression is induced using 0.3 mM IPTG at an OD600 of 0.45-0.7. The expression is then continued for approx. 12-16 h at 23-25° C. with agitation.
The bacteria are then removed by centrifuging and the pellet is lysed in lysis buffer (50 mM Tris/Cl pH 7.6, 300 mM NaCl, 1 mM DTT, 1 mM EDTA, 5% glycerol, Roche Complete Protease Inhibitor tablets) using ultrasound, using 20-30 mL lysis buffer per litre of E. coli culture. The lysed material is freed from debris by centrifugation (12000 rpm, 45-60 min, JA20 rotor). The supernatant is incubated with […] of equilibrated GST Sepharose Fast Flow (Amersham Biosciences) per litre of E. coli culture for 4-5 h at 4° C. Then the column material is washed with 30 volumes of lysis buffer and then equilibrated with 30 volumes of cleavage buffer (50 mM Tris/Cl pH 7.6, 150 mM NaCl, 1 mM DTT, 1 mM EDTA). To cleave the GST tag from Aurora B, 10 units of Prescission Protease (Amersham Biosciences) are used per milligram of substrate and the mixture is incubated for 16 h at 4° C. The supernatant which contains the cleavage product is loaded onto a 6 mL Resource Q column (Amersham Biosciences) equilibrated with ion exchange buffer (50 mM Tris/Cl pH 7.6, 150 mM NaCl, 1 mM DTT, 1 mM EDTA). The Aurora B/INCENP complex is caught as it flows through, then concentrated and loaded onto a Superdex 200 size exclusion chromatography (SEC) column equilibrated with SEC buffer (10 mM Tris/Cl pH 7.6, 150 mM NaCl, 1 mM DTT, 1 mM EDTA). Fractions which contain the AuroraB/INCENP complex are collected and concentrated using Vivaspin concentrators (molecular weight exclusion 3000-5000 Da) to a final concentration of 12 mg/mL. Aliquots (e.g. 240 ng/μL) for kinase assays are transferred from this stock solution into freezing buffer (50 mM Tris/Cl pH 8.0, 150 mM NaCl, 0.1 mM EDTA, 0.03% Brij-35, 10% glycerol, 1 mM DTT) and stored at −80° C.
Test substances are placed in a polypropylene dish (96 wells, Greiner #655 201), in order to cover a concentration frame of 10 μM-0.0001 μM. The final concentration of DMSO in the assay is 5%. 30 μL of protein mix (50 mM Tris/Cl pH 7.5, 25 mM MgCl2, 25 mM NaCl, 167 μM ATP, 10 ng Xenopus laevis Aurora B/INCENP complex in freezing buffer) are pipetted into the 10 μl of test substance provided in 25% DMSO and this is incubated for 15 min at RT. Then 10 μL of peptide mix (100 mM Tris/Cl pH 7.5, 50 mM MgCl2, 50 mM NaCl, 5 μM NaF, 5 μM DTT, 1 μCi gamma-P33-ATP [Amersham], 50 μM substrate peptide [biotin-EPLERRLSLVPDS or multimers thereof, or biotin-EPLERRLSLVPKM or multimers thereof, or biotin-[…]]) are added. The reaction is incubated for 75 min (ambient temperature) and stopped by the addition of 180 μL of 6.4% trichloroacetic acid and incubated for 20 min on ice. […]

PTK2 enzyme [3] = molecular target: T1, PTK2 enzyme; assay: PTK2 enzyme test, Assay 2 (DELFIA, poly-Glu-Tyr substrate, antibody PT66); conditions: Assay 2 (values marked *); 1 h pre-incubation, 0.5% DMSO
Text: This test uses active PTK2 enzyme (Invitrogen Code PV3832) and poly-Glu-Tyr (4:1, Sigma P-0275) as the kinase substrate. The kinase activity is detected by means of the phosphorylation of the substrate in a DELFIA™ assay. The phosphorylated substrate is detected with the europium-labelled phosphotyrosine antibody PT66 (Perkin Elmer, No.: AD0040).
In order to determine concentration-activity curves with PTK2-inhibitors the compounds are serially diluted first of all in 10% DMSO/H2O and then in kinase dilution buffer (20 mM TRIS/HCl pH 7.5, 0.1 mM EDTA, 0.1 mM EGTA, 0.286 mM sodium orthovanadate, 10% glycerol with the addition of freshly prepared BSA (fraction V, 1 mg/mL) and DTT (1 mM)) and 10 μL of each dilution are dispensed per well in a 96-well microtitre plate (clear U-shaped base plate, Greiner No. 650101) (the inhibitors are tested in duplicates) and mixed with 10 μL/well of PTK2 kinase (0.01 μg/well). PTK2 kinase is diluted accordingly beforehand with kinase dilution buffer. The diluted PTK2 inhibitor and the PTK2 kinase are pre-incubated for 1 h at RT and shaken at 500 revolutions per min. Then 10 μL/well poly-Glu-Tyr substrate (25 μg/well poly-Glu-Tyr, 0.05 μg/well biotinylated poly-Glu-Tyr dissolved in 250 mM TRIS/HCl pH 7.5, 9 mM DTT) are added. The reaction is started by the addition of 20 μL of ATP Mix (30 mM TRIS/HCl pH 7.5, 0.02% Brij, 0.2 mM sodium orthovanadate, 10 mM magnesium acetate, 0.1 mM EGTA, 1× phosphatase inhibitor cocktail 1 (Sigma, No.: P2850), 50 μM ATP (Sigma, No.: A3377; 15 mM stock solution))—the final concentration of DMSO is 0.5%. After 1 h kinase reaction (the plates are shaken at 500 rpm), the reaction is stopped by the addition of 12 μL/well of 100 mM EDTA, pH 8, and shaken for a further 5 min at RT (500 U/min). 55 μL of the reaction mixture are transferred into a streptavidin plate (Strepta Well High Bind (transparent, 96-well) made by Roche, No.: 11989685001) and incubated for 1 h at RT (shaking at 500 rpm). Then the microtitre plate is washed five times with 200 μL/well D-PBS (Invitrogen, No. 14190). 100 μL of a solution containing DELFIA Eu-N1 Anti-Phosphotyrosine PT66 antibody (Perkin Elmer, No.: AD0040, diluted 1:9000 in DELFIA test buffer (Perkin Elmer, No.: 1244-111)) is then added and it is incubated for 1 h at RT (shaking at 500 rpm). Then the plate is washed five times with 200 μL/well DELFIA washing buffer (Perkin Elmer, No.: 1244-114), 200 μL/well strengthening solution (Perkin Elmer, No.: 1244-105) is added and the whole is incubated for 10 min at RT (shaking at 300 rpm).
The time-delayed europium fluorescence is then measured in a microtitre plate reader (Victor, Perkin Elmer). The positive control consists of wells that contain solvent (0.5% DMSO in test buffer) and display uninhibited kinase activity. Wells that contain test buffer instead of enzyme act as a control for the background kinase activity.
The IC50 values are determined from concentration-activity analyses by iterative calculation using a sigmoid curve analysis algorithm (FIFTY, based on Graph PAD Prism Version 3.03) with a variable Hill coefficient.

T1 sequence (Q05397 whole entry): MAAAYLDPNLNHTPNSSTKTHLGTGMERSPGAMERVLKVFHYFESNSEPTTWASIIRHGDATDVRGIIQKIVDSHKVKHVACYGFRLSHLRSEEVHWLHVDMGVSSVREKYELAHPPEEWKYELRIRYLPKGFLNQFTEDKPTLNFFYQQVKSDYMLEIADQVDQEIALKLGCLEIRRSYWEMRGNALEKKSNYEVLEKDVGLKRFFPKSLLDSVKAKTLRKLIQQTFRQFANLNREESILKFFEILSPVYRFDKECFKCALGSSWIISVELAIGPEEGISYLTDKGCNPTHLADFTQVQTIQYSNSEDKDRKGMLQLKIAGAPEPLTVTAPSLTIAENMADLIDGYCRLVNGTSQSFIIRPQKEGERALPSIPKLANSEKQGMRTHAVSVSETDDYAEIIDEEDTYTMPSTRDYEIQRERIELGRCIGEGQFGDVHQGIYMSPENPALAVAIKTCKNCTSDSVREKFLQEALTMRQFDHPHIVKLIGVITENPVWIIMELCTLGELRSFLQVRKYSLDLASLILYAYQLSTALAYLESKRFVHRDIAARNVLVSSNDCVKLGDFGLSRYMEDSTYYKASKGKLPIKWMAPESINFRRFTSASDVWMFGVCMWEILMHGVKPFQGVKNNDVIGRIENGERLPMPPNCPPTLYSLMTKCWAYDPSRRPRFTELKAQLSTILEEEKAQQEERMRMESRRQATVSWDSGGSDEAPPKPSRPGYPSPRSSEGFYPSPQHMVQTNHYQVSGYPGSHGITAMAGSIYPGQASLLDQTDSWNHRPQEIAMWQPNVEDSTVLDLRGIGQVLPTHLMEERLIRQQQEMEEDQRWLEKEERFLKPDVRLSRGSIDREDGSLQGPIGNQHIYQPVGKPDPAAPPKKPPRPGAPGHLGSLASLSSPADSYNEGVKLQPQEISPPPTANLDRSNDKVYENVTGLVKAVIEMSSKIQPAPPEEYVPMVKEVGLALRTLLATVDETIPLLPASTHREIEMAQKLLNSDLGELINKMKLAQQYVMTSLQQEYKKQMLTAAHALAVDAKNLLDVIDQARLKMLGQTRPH
T2 sequence (Q6DE08 60-361): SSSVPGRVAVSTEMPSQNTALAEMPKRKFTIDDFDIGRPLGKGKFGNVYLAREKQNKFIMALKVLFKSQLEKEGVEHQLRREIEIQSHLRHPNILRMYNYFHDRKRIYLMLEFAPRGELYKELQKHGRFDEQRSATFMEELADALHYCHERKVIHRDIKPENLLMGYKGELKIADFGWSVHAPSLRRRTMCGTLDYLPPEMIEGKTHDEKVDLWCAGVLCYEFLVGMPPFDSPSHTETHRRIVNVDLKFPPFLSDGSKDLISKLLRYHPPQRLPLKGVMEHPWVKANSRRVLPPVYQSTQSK
T2 sequence (O13024 790-847 partner): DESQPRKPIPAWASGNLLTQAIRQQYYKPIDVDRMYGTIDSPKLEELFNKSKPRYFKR

Molecule `COc1cc(C(=O)NC2CCN(C)CC2)ccc1Nc1ncc(C(F)(F)F)c(N[C@@H]2CCCC[C@H]2N(C)S(C)(=O)=O)n1` [Example I-90, 4-{4-[(1R,2R)-2-(methanesulphonyl-methyl-amino)-cyclohexylamino]-5-trifluoromethyl-pyrimidin-2-ylamino}-3-methoxy-N-(1-methyl-piperidin-4-yl)-benzamide] has an IC50 (PTK2 enzyme [1]) of 0.8 nM and an IC50 [2] of 280 nM.

Work on `CCN([C@@H]1CCCC[C@H]1Nc1nc(Nc2ccc(C(=O)NC3CCN(C)CC3)cc2OC)ncc1C(F)(F)F)S(C)(=O)=O` [Example I-91] yielded an IC50 (PTK2 enzyme [1]) of 1 nM and an IC50 [2] of 264 nM.

`COc1cc(C(=O)NC2CCN(C)CC2)c(C)cc1Nc1ncc(C(F)(F)F)c(N[C@@H]2CCCC[C@H]2N(C)S(C)(=O)=O)n1` [Example I-93] was tested, and the IC50 (PTK2 enzyme [1]) was 0.86 nM and the IC50 [2] was 4040 nM.

Work on `COc1cc(C(=O)NC2CCN(C)CC2)ccc1Nc1ncc(C(F)(F)F)c(N[C@@H]2CCC[C@H]2N(C)S(C)(=O)=O)n1` [Example I-124, 4-{4-[(1R,2R)-2-(methanesulphonyl-methyl-amino)-cyclopentylamino]-5-trifluoromethyl-pyrimidin-2-ylamino}-3-methoxy-N-(1-methyl-piperidin-4-yl)-benzamide] yielded an IC50 (PTK2 enzyme [1]) of 0.81 nM and an IC50 [2] of 241 nM.

With `COc1cc(C(=O)NC2CCN(C)CC2)ccc1Nc1ncc(C(F)(F)F)c(N[C@@H]2CCCC[C@H]2NS(C)(=O)=O)n1` [Example I-125, 4-[4-((1R,2R)-2-methanesulphonylamino-cyclohexylamino)-5-trifluoromethyl-pyrimidin-2-ylamino]-3-methoxy-N-(1-methyl-piperidin-4-yl)-benzamide] the IC50 (PTK2 enzyme [1]) was 0.93 nM and the IC50 [2] was 257 nM.

`COCCN1CCC(NC(=O)c2cc(OC)c(Nc3ncc(C(F)(F)F)c(N[C@@H]4CCC[C@H]4N(C)S(C)(=O)=O)n3)cc2F)CC1` [Example I-130] was tested, and the IC50 (PTK2 enzyme [3]) was 0.24 nM.

In the case of `COc1cc(C(=O)NN2CCN(C)CC2)c(F)cc1Nc1ncc(C(F)(F)F)c(N[C@@H]2CCC[C@H]2N(C)S(C)(=O)=O)n1` [Example I-136], the IC50 (PTK2 enzyme [3]) is reported as 0.28 nM.

Molecule `COc1cc(N2CCN(C)CC2)c(Cl)cc1Nc1ncc(C(F)(F)F)c(N[C@@H]2CCC[C@H]2N(C)S(C)(=O)=O)n1` [Example I-139] has an IC50 (PTK2 enzyme [3]) of 0.49 nM.

Molecule `COc1cc(C(=O)NC2CCN(C)CC2)ccc1Nc1ncc(C(F)(F)F)c(N[C@@H]2CC=CC[C@H]2N(C)S(C)(=O)=O)n1` [Example I-151] has an IC50 (PTK2 enzyme [3]) of 0.67 nM.

In the case of `COc1cc(NC(C)=O)c(F)cc1Nc1ncc(C(F)(F)F)c(N[C@@H]2CCCC[C@H]2N(C)S(C)(=O)=O)n1` [Example I-159], the IC50 (PTK2 enzyme [3]) is reported as 0.9 nM.

`CCc1cc(Nc2ncc(C(F)(F)F)c(N[C@@H]3CCCC[C@H]3N(C)S(C)(=O)=O)n2)c(OC)cc1N1CCN(C)CC1` [Example I-160] was tested, and the IC50 (PTK2 enzyme [3]) was 0.71 nM.

`COc1ccc(C(=O)N(C)C2CCN(C)CC2)cc1Nc1ncc(C(F)(F)F)c(N[C@@H]2CCC[C@H]2N(C)S(C)(=O)=O)n1` [Example I-176] gave an IC50 (PTK2 enzyme [3]) of 0.44 nM.

Work on `COc1ccc(C(=O)NC2CCN(C)CC2)cc1Nc1ncc(Cl)c(N[C@@H]2CCC[C@H]2N(C)S(C)(=O)=O)n1` [Example I-179] yielded an IC50 (PTK2 enzyme [3]) of 0.46 nM.

For `COc1ccc(C(=O)NC2CCN(C)CC2)cc1Nc1ncc(C(F)(F)F)c(N[C@@H]2CCCC[C@H]2NC(C)=O)n1` [Example I-180], the IC50 (PTK2 enzyme [3]) was 0.43 nM.

Work on `COCCNC(=O)c1ccc(OC)c(Nc2ncc(C(F)(F)F)c(N[C@@H]3CCCC[C@H]3NS(C)(=O)=O)n2)c1` [Example I-181] yielded an IC50 (PTK2 enzyme [3]) of 0.43 nM.

Molecule `COc1cc(N2CCN(C(C)(C)C)CC2)c(C)cc1Nc1ncc(Cl)c(N[C@@H]2CCCC[C@H]2N(C)S(C)(=O)=O)n1` [Example I-184] has an IC50 (PTK2 enzyme [3]) of 1 nM.

`COc1cc(N2CCN(C(C)(C)C)CC2)c(Cl)cc1Nc1ncc(Cl)c(N[C@@H]2CCCC[C@H]2N(C)S(C)(=O)=O)n1` [Example I-185] gave an IC50 (PTK2 enzyme [3]) of 1 nM.

`COc1ccc(NC(=O)[C@@H]2CCCN2C)cc1Nc1ncc(Cl)c(N[C@@H]2CCCC[C@H]2N(C)S(C)(=O)=O)n1` [Example I-191] gave an IC50 (PTK2 enzyme [3]) of 10 nM.

In the case of `COc1ccc(NC(=O)C2CCN(C)CC2)cc1Nc1ncc(Cl)c(N[C@@H]2CCCC[C@H]2N(C)S(C)(=O)=O)n1` [Example I-192], the IC50 (PTK2 enzyme [3]) is reported as 2 nM.

For `COc1cc(F)c(C(=O)NC2CCOCC2)cc1Nc1ncc(C(F)(F)F)c(N[C@@H]2CCCC[C@H]2NS(C)(=O)=O)n1` [Example I-193], the IC50 (PTK2 enzyme [3]) was 0.72 nM.

`CNC(=O)c1cc(Nc2ncc(C(F)(F)F)c(N[C@@H]3CCCC[C@H]3NS(C)(=O)=O)n2)c(OC)cc1F` [Example I-194] gave an IC50 (PTK2 enzyme [3]) of 0.71 nM.
